Experiment [1] deals with T1, NMDA receptors (NR2B subunit containing) (Rattus norvegicus, UniProt P35439+Q00960).
T1 construct: endogenous in cells; host or cells: primary neocortical neurons from 17 day old Charles River rat embryos, 4-7 days in vitro
The experiment in a line: Functional NMDA antagonist potency: intracellular calcium measurement in primary cultures of rat cortical neurons (fluorimeter plate reader). Format: cell-based. Conditions: rat cortical neurons 4-7 days in vitro, 40 μM NMDA, Fluo-4 intracellular Ca2+; read-out: NMDA IC50. An excerpt: Assessing the Functional NMDA Antagonist Potency of Compounds in Primary Cultures of Rat Cortical Neurons Based on Measuring the Intracellular Calcium Concentration Using a Fluorimeter Plate Reader
It is known that during postnatal development the subunit composition of neuronal NMDA receptors is changing. […] According to data in the literature and to our own immunocytochemical examinations neuronal cells cultured for 4-7 days in vitro predominantly express the NR2B subunit, together with NR1 subunit. Therefore, functional test of NMDA antagonism in these cells reflects mainly an action on NR2B subunit containing receptors. Since NMDA receptors are known to be permeable to calcium ions upon excitation, the extent of NMDA receptor activation, and its inhibition by functional antagonists can be characterised by measuring the rise in the intracellular calcium concentration following agonist (NMDA) application onto the cells. Since there is very high sequence homology between rat and human NMDA receptors (99, 95, 97% for NR1, NR2A, and NR2B subunits, respectively), it is believed that there is little, if any, difference in their pharmacological sensitivity.
In: Protocols for Neural Cell Culture, eds: Fedoroff, S.; Richardson A., The Humana Press Inc., 13-38.] After isolation, the cells are plated onto standard 96-well microplates and the cultures are maintained in an atmosphere of 95% air-5% CO2 at 37° C. until testing.
The cultures are used for the intracellular calcium measurements after 4-7 days in vitro. […] Loading is stopped by washing twice with the solution used also during the measurement (140 mM NaCl, 5 mM KCl, 2 mM CaCl2, 5 mM HEPES [4-(2-hydroxyethyl)-1-piperazineethane-sulfonic acid], 5 mM HEPES-Na, 20 mM glucose, 10 μM glycine, pH=7.4). Then the test compound dissolved in the above solution (90 μl/well) is added. Intracellular calcium measurements are carried out with a plate reader fluorimeter. A rise is induced by application of 40 μM NMDA in Fluo-4-fluorescence that reflects the intracellular calcium concentration. Inhibitory potency of the test compound is assessed by measuring the reduction in the calcium elevation in the presence of different concentrations of the compound. After the measurement, a standard calibration procedure [Meth. Cell.
Inhibitory potency of a compound at a single concentration point is expressed as percent inhibition of the control NMDA response. Sigmoidal concentration-inhibition curves are fitted over the data and IC50 values are defined as the concentration that produces half of the maximal inhibition that could be achieved with the compound. Mean IC50 values are derived from at least three independent experiments.
(§1) wherein for NMDA IC50—IC50 is determined by the intracellular Ca^2+-concentartion assay on cortical neurons; and for Ro-binding IC50—IC50 is determined by the [^3H]-Ro 25,6981 binding assay on rat cerebral membranes.
For orientation: Calcium assays in cells follow changes in intracellular calcium, usually with a dye or a luminescent sensor.

A further experiment relates to NMRI mice. The experiment is described as follows: Mouse formalin test (second phase) for in vivo efficacy. Conditions: po, p.o. 15 min before formalin, licking time 20 to 25 min after formalin, >20 = inhibition less than 50% at 20 mg/kg p.o. The procedure:
Mouse Formalin Test for Measurement of In Vivo Efficacy
Injection of diluted formalin into the hind paw of rats or mouse is known to elicit a biphasic pain related behaviour measured as time spent by licking/biting of the injured paw. The second phase is generally defined as pain related events detected in the 15-60 min. time interval after formalin injection. It is known that NMDA receptors are involved in the second phase of response to formalin injection and this behavioural response is sensitive to blockade of NMDA receptors [Dickenson, A. and Besson J.-M. (Eds.): Chapter 1, pp. 6-7: Animal models of Analgesia; and Chapter 8, pp. 180-183: Mechanism of Central Hypersensitivity: Excitatory Amino Acid Mechanisms and Their Control—In Pharmacology of Pain. Springer-Verlag (Berlin) 1997.] Therefore, we performed the second phase of formalin test to characterise the efficacy of compounds in vivo. Inhibition of the second phase of response is considered to indicate an analgesic effect against chemically-induced persistent pain [Hunskaar, S., et al.: Formalin Test in Mice, a Useful Technique for Evaluating Mild Analgesics, Journal of Neuroscience Methods, 14 (1985) 69-76.] Male albino Charles River NMRI mice (20-25 g) were used. Prior to the experiment any solid food was withdrawn for 16 hours but the animals had free access to 20% glucose solution. The animals were allowed a 1 hour acclimatisation period spent in a glass cylinder (cc. 15 cm in diameter), then moved to an identical cylinder with a mirror placed behind to facilitate observation. The test substances were suspended in 5% tween-80 (10 ml per kg body weight). and administered orally by gavage 15 min before the formalin injection (20 μl of 1% formalin in 0.9% saline injected subcutaneously into the dorsal surface of the right hindpaw). The time spent by licking and biting of the injected paw was measured from 20 to 25 min. after the formalin injection.

The next experiment has as its target T2, NR2B subunit (Rattus norvegicus, UniProt P35439+Q00960).
T2 construct: from tissue; host or cells: forebrain membranes of male Wistar rats
The experiment is described as follows: [3H]-Ro 25,6981 binding assay on rat cerebral membranes. The settings on record: rat forebrain membranes, 4 nM [3H]-Ro 25,6981, 2 hours at room temperature; read-out: Ro-binding IC50. The procedure:
Determining Binding of Compounds to NR2B Subunit by [^3H]-Ro 25,6981 Binding Assay
Briefly, membranes are isolated from the forebrain of male Wistar rats. They are incubated in the presence and absence of test compound for 2 hours at room temperature. […] The applied radioligand (^3H-Ro-25,6981) concentration is 4 nM.
as §1

pIC50: −log10 of the molar value.

T2 sequence (Q00960 27-1482, other chains not shown): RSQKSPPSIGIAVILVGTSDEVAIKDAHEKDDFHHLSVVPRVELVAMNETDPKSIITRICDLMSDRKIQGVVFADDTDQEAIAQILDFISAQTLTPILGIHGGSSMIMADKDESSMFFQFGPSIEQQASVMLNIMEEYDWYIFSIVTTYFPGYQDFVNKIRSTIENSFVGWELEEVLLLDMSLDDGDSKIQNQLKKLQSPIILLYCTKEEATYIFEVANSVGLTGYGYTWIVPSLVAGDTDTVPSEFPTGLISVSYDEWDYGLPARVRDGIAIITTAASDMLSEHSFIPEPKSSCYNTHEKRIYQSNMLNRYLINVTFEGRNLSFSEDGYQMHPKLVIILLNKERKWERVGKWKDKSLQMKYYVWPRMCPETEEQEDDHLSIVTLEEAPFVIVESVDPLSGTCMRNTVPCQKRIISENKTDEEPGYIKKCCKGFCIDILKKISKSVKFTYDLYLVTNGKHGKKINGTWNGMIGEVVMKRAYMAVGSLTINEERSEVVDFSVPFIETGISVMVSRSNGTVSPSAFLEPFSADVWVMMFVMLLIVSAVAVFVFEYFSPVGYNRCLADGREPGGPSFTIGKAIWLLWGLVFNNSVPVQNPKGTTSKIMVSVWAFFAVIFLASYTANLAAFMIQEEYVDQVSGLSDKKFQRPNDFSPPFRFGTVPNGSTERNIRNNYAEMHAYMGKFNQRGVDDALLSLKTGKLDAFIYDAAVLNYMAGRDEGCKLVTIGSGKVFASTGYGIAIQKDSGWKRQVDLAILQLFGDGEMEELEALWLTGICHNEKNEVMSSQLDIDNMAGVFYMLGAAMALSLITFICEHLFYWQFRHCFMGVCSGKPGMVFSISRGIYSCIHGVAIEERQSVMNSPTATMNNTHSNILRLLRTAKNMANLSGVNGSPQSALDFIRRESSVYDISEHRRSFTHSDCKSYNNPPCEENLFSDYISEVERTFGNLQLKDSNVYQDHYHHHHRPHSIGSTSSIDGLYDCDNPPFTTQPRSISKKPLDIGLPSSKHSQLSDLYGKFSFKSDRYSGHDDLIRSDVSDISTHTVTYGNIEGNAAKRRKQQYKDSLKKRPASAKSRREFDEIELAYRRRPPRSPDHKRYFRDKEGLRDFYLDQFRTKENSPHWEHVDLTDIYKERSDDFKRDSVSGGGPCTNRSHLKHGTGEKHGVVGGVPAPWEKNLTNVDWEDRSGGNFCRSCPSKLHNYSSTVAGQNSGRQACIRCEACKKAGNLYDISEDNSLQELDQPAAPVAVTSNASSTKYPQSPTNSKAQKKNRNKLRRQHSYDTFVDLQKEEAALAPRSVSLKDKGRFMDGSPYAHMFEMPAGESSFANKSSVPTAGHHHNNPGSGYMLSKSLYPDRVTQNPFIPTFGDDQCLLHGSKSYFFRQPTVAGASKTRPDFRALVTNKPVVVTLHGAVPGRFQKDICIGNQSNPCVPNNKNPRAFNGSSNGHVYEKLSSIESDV
T1 sequence (Q00960 27-1482, other chains not shown): as above

On to `O=C(Nc1ccc2[nH]c(=O)oc2c1)C(=O)N1CCC(Cc2ccc(F)cc2)CC1` [Example 3, 2-[4-(4-Fluoro-benzyl)-piperidin-1-yl]-2-oxo-N-(2-oxo-2,3-dihydro-benzoxazol-6-yl)-acetamide], for which the pIC50 – broadly, the negative decadic logarithm of the IC50, by convention in mol/L – in experiment [1] was 8.49; at NR2B subunit, 7.74. In the experiment on NMRI mice, the ED50 (usually the dose at which the effect has come halfway, by size or by number of responders) was 6.9 mg/kg.

(Values after patent US7435744B2, “Piperidine derivatives as NMDA receptor antagonists” (Gedeon Richter Vegyeszeti Gyar RT, priority 2001, dated 2008).)
